Test results: US10865191B2, “Heterocyclic compounds useful as modulators of TNF alpha” (BRISTOL-MYERS SQUIBB COMPANY, priority 2015, dated 2020)
pIC50: −log10 of the molar value.

target: TNFα (Homo sapiens, UniProt P01375); test: TNF induced HEK-Blue assay (NF-kB-driven secreted alkaline phosphatase reporter); assay type: cell-based; details: TNF induced HEK-Blue assay IC50 value, TNFα 0.5 ng/mL, HEK-Blue-CD40L cells, 18 h
How it was run: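 HEK-Blue-CD40L cells (NF-kB-driven SEAP reporter), 20,000/well, added after 30 min pre-incubation of compound (0.004–25 μM final) with TNFα 0.5 ng/mL final at 37 °C; 18 h incubation. SEAP read with QUANTI-Blue at 620 nm; IC50 from 4-parameter logistic fit, normalized to unstimulated and stimulated DMSO controls.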

TNFα, sequence (P01375 77-233 limits assumed): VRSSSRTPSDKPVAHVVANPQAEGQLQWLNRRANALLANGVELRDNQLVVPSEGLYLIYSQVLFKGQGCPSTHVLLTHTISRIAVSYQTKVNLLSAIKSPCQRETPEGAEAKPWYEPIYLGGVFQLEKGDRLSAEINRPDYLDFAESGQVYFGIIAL

Row | Compound | pIC50
1 | C[C@H](Nc1c(Cl)cnc2cnc(-c3cnc(C(C)(C)O)nc3)cc12)c1ccccc1F (single isomer, unassigned) [Example 234] | 4.60 to 5.00
2 | CC(Nc1c(Cl)cnc2cc(F)c(-c3cnc(C(C)(C)O)nc3)cc12)c1ccccc1F (stereo not shown) [Example 248, 2-(5-(3-chloro-7-fluoro-4-((1-(2-fluorophenyl)ethyl)amino)quinolin-6-yl)pyrimidin-2-yl)propan-2-ol] | 4.60 to 5.00
3 | CC(Nc1c(Cl)cnc2cc(F)c(-c3cnc(C(C)(C)O)nc3)cc12)c1ccccc1F (single isomer, unassigned) [Example 241, 2-(5-(3-chloro-7-fluoro-4-((1-(2-fluorophenyl)ethyl)amino)quinolin-6-yl)pyrimidin-2-yl)propan-2-ol] | > 6.00

same assay, conditions: TNFα 0.5 ng/mL, HEK-Blue-CD40L cells, 18 h; read-out: TNF induced HEK-Blue assay IC50 value

Row | Compound | pIC50
4 | CC(C)(O)c1ncc(-c2ccc3ncc(Cl)c(NC(C)(C)c4ccc(C(F)(F)F)cc4)c3c2)cn1 [Example 185, 2-(5-(3-chloro-4-((2-(4-(trifluoromethyl)phenyl)propan-2-yl)amino)quinolin-6-yl)pyrimidin-2-yl)propan-2-ol] | 4.60 to 5.00
5 | O=C(O)CNCc1ccc(-c2ccc3ncc(Cl)c(N[C@@H](c4ccccc4F)C(F)F)c3c2)cc1 [Example 13, (S)-(4-(3-chloro-4-((2,2-difluoro-1-(2-fluorophenyl)ethyl)amino)quinolin-6-yl)benzyl)glycine] | 4.60 to 5.00
6 | CC(Nc1c(Cl)cnc2ccc(-c3ccc(C(C)(C)O)cc3)cc12)c1nc(C(N)=O)ccc1F (racemic) [Example 27, 6-(1-((3-chloro-6-(4-(2-hydroxypropan-2-yl)phenyl)quinolin-4-yl)amino)ethyl)-5-fluoropicolinamide] | > 6.00
7 | CC1=C(CC(C)Nc2c(Cl)cnc3ccc(-c4cnc(C(C)(C)O)nc4)cc23)CCC1(C)C (racemic) [Example 134, 2-(5-(3-chloro-4-((1-(2,3,3-trimethylcyclopent-1-en-1-yl)propan-2-yl)amino)quinolin-6-yl)pyrimidin-2-yl) propan-2-ol] | 5.00 to 6.00
8 | CC(Nc1c(Cl)cnc2cc(F)c(-c3cnc(C(O)CN4CCOCC4)cn3)cc12)c1ccccc1F (stereo not shown) [Example 273, 1-(5-(3-chloro-7-fluoro-4-((1-(2-fluorophenyl)ethyl)amino)quinolin-6-yl)pyrazin-2-yl)-2-morpholinoethan-1-ol] | > 6.00
9 | COc1ccc(F)c([C@@H](C)Nc2c(Cl)c(C)nc3ccccc23)c1 [Example 329, (R)-3-chloro-N-(1-(2-fluoro-5-methoxyphenyl)ethyl)-2-methylquinolin-4-amine] | 5.00 to 6.00
10 | Cc1nc2ccc(-c3cnc(C(C)(C)O)nc3)cc2c(N[C@H](C)c2cc(C(=O)O)ccc2F)c1Cl [Example 407, (R)-3-(1-((3-chloro-6-(2-(2-hydroxypropan-2-yl)pyrimidin-5-yl)-2-methylquinolin-4-yl)amino)ethyl)-4-fluorobenzoic acid] | 4.60 to 5.00
11 | C[C@@H](Nc1c(Cl)cnc2ccc(-c3cnc(C(C)(C)O)nc3)cc12)c1cc(-c2cccnc2)ccc1F [Example 553, (R)-2-(5-(3-chloro-4-((1-(2-fluoro-5-(pyridin-3-yl)phenyl)ethyl)amino)quinolin-6-yl)pyrimidin-2-yl)propan-2-ol] | > 6.00
12 | COC(=O)N1CCC[C@H]([C@H](C)Nc2c(Cl)cnc3ccc(-c4cnc(C(C)(C)O)nc4)cc23)C1 [Example 354, (S)-methyl 3-((S)-1-((3-chloro-6-(2-(2-hydroxypropan-2-yl)pyrimidin-5-yl)quinolin-4-yl)amino)ethyl)piperidine-1-carboxylate] | > 6.00
13 | CC(Nc1c(Cl)cnc2ccc(-c3cnc(C(C)(C)O)nc3)cc12)[C@@H]1CCCN(C(N)=O)C1 (single isomer, unassigned) [Example 104] | 5.00 to 6.00
14 | C[C@@H](Nc1c(Cl)cnc2ccc(-c3cnc(N4CCN([C@@H](CNC(=O)OC(C)(C)C)C(=O)O)CC4)nc3)cc12)c1ccccc1F [Example 93, (S)-3-((tert-butoxycarbonyl)amino)-2-(4-(5-(3-chloro-4-(((R)-1-(2-fluorophenyl)ethyl)amino)quinolin-6-yl)pyrimidin-2-yl)piperazin-1-yl)propanoic acid] | 5.00 to 6.00
15 | CC(C)(O)c1ncc(-c2nc3c(N[C@@H](c4ccccc4F)C(F)F)c(Cl)cnc3cc2F)cn1 [Example 207, (S)-2-(5-(7-chloro-8-((2,2-difluoro-1-(2-fluorophenyl)ethyl)amino)-3-fluoro-1,5-naphthyridin-2-yl)pyrimidin-2-yl)propan-2-ol] | > 6.00
16 | O=C(O)CN1CCN(c2ccc(-c3ccc4ncc(Cl)c(N[C@@H](c5ccccc5F)C(F)F)c4c3)cn2)CC1 [Example 15, (S)-2-(4-(5-(3-chloro-4-((2,2-difluoro-1-(2-fluorophenyl)ethyl)amino)quinolin-6-yl)pyridin-2-yl)piperazin-1-yl)acetic acid] | > 6.00
17 | COc1ccc(F)c([C@@H](C)Nc2c(Cl)c(C)nc3ccc(Br)cc23)c1 [Example 328, (R)-6-bromo-3-chloro-N-(1-(2-fluoro-5-methoxyphenyl)ethyl)-2-methylquinolin-4-amine] | 5.00 to 6.00
18 | Cc1nc2ccc(-c3cnc(C(C)(C)O)nc3)cc2c(N[C@H](C)c2cc(CO)ccc2F)c1Cl [Example 431, (R)-2-(5-(3-chloro-4-((1-(2-fluoro-5-(hydroxymethyl)phenyl)ethyl)amino)-2-methylquinolin-6-yl)pyrimidin-2-yl)propan-2-ol] | > 6.00
19 | CC(C)(O)c1ncc(-c2ccc3ncc(Cl)c(NCc4ccc(OC(F)F)cc4)c3c2)cn1 [Example 148, 2-(5-(3-chloro-4-((4-(difluoromethoxy)benzyl)amino)quinolin-6-yl)pyrimidin-2-yl)propan-2-ol] | 5.00 to 6.00

Row | Compound | pIC50
20 | C[C@@H](Nc1c(Cl)cnc2cc(F)c(-c3ccc(N4CCN(CC(=O)O)CC4)cc3)cc12)c1ccccc1F [Example 280, (R)-2-(4-(4-(3-chloro-7-fluoro-4-((1-(2-fluorophenyl)ethyl)amino)quinolin-6-yl)phenyl)piperazin-1-yl)acetic acid] | > 6.00
21 | CC(Nc1c(Cl)cnc2cc(F)c(-c3cnc(C(C)(O)CO)nc3)cc12)c1ccccc1F (stereo not shown) [Example 257, 2-(5-(3-chloro-7-fluoro-4-((1-(2-fluorophenyl)ethyl)amino)quinolin-6-yl)pyrimidin-2-yl)propane-1,2-diol] | > 6.00
22 | C[C@@H](Nc1c(Cl)cnc2ccc(-c3cnc(C(C)(C)O)nc3)cc12)c1cc(CO)ccc1F [Example 430, (R)-2-(5-(3-chloro-4-((1-(2-fluoro-5-(hydroxymethyl)phenyl)ethyl)amino)quinolin-6-yl)pyrimidin-2-yl)propan-2-ol] | > 6.00
23 | CC(C)(O)c1ncc(-c2ccc3ncc(Cl)c(NN4CCc5ccccc54)c3c2)cn1 [Example 47, 2-(5-(3-chloro-4-(indolin-1-ylamino)quinolin-6-yl)pyrimidin-2-yl)propan-2-ol] | > 6.00
24 | COc1cccc([C@@H](C)Nc2c(Cl)cnc3ccccc23)c1 [Example 462, (R)-3-chloro-N-(1-(3-methoxyphenyl)ethyl)quinolin-4-amine] | 4.60 to 5.00
25 | O=C(O)CC1CN(c2ncc(-c3ccc4ncc(Cl)c(N[C@@H](c5ccccc5F)C(F)F)c4c3)cn2)CCN1 (mixture of isomers) [Example 77, 2-(4-(5-(3-chloro-4-(((S)-2,2-difluoro-1-(2-fluorophenyl)ethyl)amino)quinolin-6-yl)pyrimidin-2-yl)piperazin-2-yl) acetic acid] | > 6.00
26 | CCNCc1ccc(-c2ccc3ncc(Cl)c(N[C@H](C)c4ccccc4F)c3c2)cc1 [Example 29, (R)-3-chloro-6-(4-((ethylamino)methyl)phenyl)-N-(1-(2-fluorophenyl)ethyl)quinolin-4-amine] | 5.00 to 6.00
27 | Cc1nc2ccc(-c3cnc(C(C)(C)O)nc3)cc2c(N[C@H](C)c2ccccc2)c1Cl [Example 322, (R)-2-(5-(3-chloro-2-methyl-4-((1-phenylethyl)amino)quinolin-6-yl)pyrimidin-2-yl)propan-2-ol] | 4.60 to 5.00
28 | C[C@@H](Nc1c(Cl)cnc2ccccc12)c1cc(-c2cncs2)ccc1F [Example 542, (R)-3-chloro-N-(1-(2-fluoro-5-(thiazol-5-yl)phenyl)ethyl)quinolin-4-amine] | > 6.00
29 | Cc1nc2ccc(-c3cnc(C(C)(C)O)nc3)cc2c(N[C@H](C)c2cc(-n3cccn3)ccc2F)c1Cl [Example 365, (R)-2-(5-(3-chloro-4-((1-(2-fluoro-5-(1H-pyrazol-1-yl)phenyl)ethyl)amino)-2-methylquinolin-6-yl)pyrimidin-2-yl)propan-2-ol] | > 6.00
30 | C[C@@H](Nc1c(Cl)cnc2ccc(-c3cnn(C)c3)cc12)c1cc(-c2cncnc2)ccc1F [Example 550, (R)-3-chloro-N-(1-(2-fluoro-5-(pyrimidin-5-yl)phenyl)ethyl)-6-(1-methyl-1H-pyrazol-4-yl)quinolin-4-amine] | > 6.00
31 | CC(Nc1c(Cl)cnc2ccc(-c3ccc(C(C)(C)O)cc3)cc12)c1nccn1C (racemic) [Example 201, 2-(4-(3-chloro-4-((1-(1-methyl-1H-imidazol-2-yl)ethyl)amino)quinolin-6-yl)phenyl)propan-2-ol] | 4.60 to 5.00
32 | Cc1ccc(C)c(Nc2c(C)c(O)nc3ccc(-c4cnc(C(C)(C)O)nc4)cc23)c1 [Example 181, 4-((2,5-dimethylphenyl)amino)-6-(2-(2-hydroxypropan-2-yl)pyrimidin-5-yl)-3-methylquinolin-2-ol] | 4.60 to 5.00
33 | CC(Nc1c(Cl)cnc2cc(F)c(-c3ccc(C4(CO)CC4)cc3)cc12)c1ccccc1F (racemic) [Example 264, (1-(4-(3-chloro-7-fluoro-4-((1-(2-fluorophenyl)ethyl)amino)quinolin-6-yl)phenyl)cyclopropyl)methanol] | > 6.00
34 | Cc1ccc(C)c(Nc2c(Cl)c(CO)nc3ccc(-c4ccc(C#N)nc4)cc23)c1 [Example 40, 5-(3-chloro-4-((2,5-dimethylphenyl)amino)-2-(hydroxymethyl)quinolin-6-yl)picolinonitrile] | 5.00 to 6.00
